From patent publication US10667517B2, “2-(Het)aryl-substituted fused heterocycle derivatives as pesticides” (BAYER CROPSCIENCE AKTIENGESELLSCHSAFT, priority 2015, dated 2020) come the findings set out here.

Data set [1] has as its system Myzus persicae. Nature of the data set: Myzus persicae - spray test. Type of data set: in vivo. The conditions noted are these: application rate 500 g/ha; all stages of green peach aphid on Chinese cabbage leaf discs; after 5-6 days. The method, then: Myzus persicae—Spray Test
• Solvent: 78 parts by weight of acetone • 1.5 parts by weight of dimethylformamide • Emulsifier: alkylaryl polyglycol ether
To produce a suitable active compound preparation, 1 part by weight of active compound is dissolved with the stated parts by weight of solvent and made up with water containing an emulsifier concentration of 1000 ppm until the desired concentration is attained. To produce further test concentrations, the preparation is diluted with emulsifier-containing water.
Discs of Chinese cabbage leaves (Brassica pekinensis) infested by all stages of the green peach aphid (Myzus persicae) are sprayed with an active compound preparation of the desired concentration.
After 5-6 days, the efficacy in % is determined. 100% means that all the aphids have been killed; 0% means that no aphids have been killed.

A short description of data set [2]: log P (neutral), HPLC on reversed-phase column (C 18), LC-MS neutral range. The conditions noted are these: HPLC reversed-phase C 18, 55° C., pH 7.8, ammonium hydrogencarbonate/acetonitrile. Format: physicochemical. How it is done: Temperature: 55° C. […] Called log P (neutral) in the table.
Data set [3] has as its system Ctenocephalides felis. Nature of the data set: Ctenocephalides felis - in vitro contact tests with adult cat fleas. Format: in vivo. Conditions: application rate 5 μg/cm^2 (500 g/ha); adult cat fleas in coated tubes; after 48 h; dead or moribund. How it is done:
Ctenocephalides felis—In Vitro Contact Tests with Adult Cat Fleas
(§1) For the coating of the test tubes, 9 mg of active compound are first dissolved in 1 ml of acetone p.a. and then diluted to the desired concentration with acetone p.a. 250 μl of the solution are distributed homogeneously on the inner walls and the base of a 25 ml test tube by turning and rocking on an orbital shaker (rocking rotation at 30 rpm for 2 h). With 900 ppm active compound solution and internal surface 44.7 cm^2, given homogeneous distribution, an area-based dose of 5 μg/cm^2 is achieved.
After the solvent has evaporated off, the tubes are populated with 5-10 adult cat fleas (Ctenocephalides felis), sealed with a perforated plastic lid and incubated in a horizontal position at room temperature and ambient humidity. After 48 h, efficacy is determined. To this end, the test tubes are stood upright and the fleas are knocked to the base of the tube. Fleas which remain motionless at the base or move in an uncoordinated manner are considered to be dead or moribund.
100% efficacy means that all the fleas were dead or moribund. 0% efficacy means that no fleas were harmed.

The subject of data set [4] is Phaedon cochleariae. Nature of the data set: Phaedon cochleariae - spray test. Type of data set: in vivo. The conditions noted are these: application rate 500 g/ha; mustard beetle larvae on Chinese cabbage leaf discs; after 7 days.
Data set [5] relates to Rhipicephalus sanguineus. Briefly: Rhipicephalus sanguineus - in vitro contact tests with adult brown dog ticks. Format: in vivo. The conditions noted are these: application rate 5 μg/cm^2 (500 g/ha); adult brown dog ticks in coated tubes; after 48 h; dead or moribund. The method, then:
Rhipicephalus sanguineus—In Vitro Contact Tests with Adult Brown Dog Ticks
as §1
After the solvent has evaporated off, the tubes are populated with 5-10 adult dog ticks (Rhipicephalus sanguineus), sealed with a perforated plastic lid and incubated in a horizontal position in the dark at room temperature and ambient humidity. After 48 h, efficacy is determined. To this end, the ticks are knocked to the base of the tube and incubated on a hotplate at 45-50° C. for not more than 5 min. Ticks which remain motionless on the base or move in such an uncoordinated manner that they are unable to deliberately avoid the heat by climbing upwards are considered to be dead or moribund.
An efficacy of 100% means that all the ticks were dead or moribund. 0% efficacy means that none of the ticks were harmed.

Data set [6] deals with Ctenocephalides felis. Briefly: Ctenocephalides felis - oral test. Type of data set: in vivo. Conditions: application rate 100 ppm in citrated cattle blood; adult cat fleas; after 2 days. The method, then:
Ctenocephalides felis—Oral Test • Solvent: dimethyl sulphoxide To produce a suitable active compound preparation, 10 mg of active compound are mixed with 0.5 ml of dimethyl sulphoxide. Dilution with citrated cattle blood gives the desired concentration. About 20 unfed adult cat fleas (Ctenocephalides felis) are placed into a chamber which is closed at the top and bottom with gauze. A metal cylinder whose bottom end is closed with parafilm is placed onto the chamber. The cylinder contains the blood/active compound preparation, which can be imbibed by the fleas through the parafilm membrane. After 2 days, the kill in % is determined. 100% means that all of the fleas have been killed; 0% means that none of the fleas have been killed.

In data set [7] the test system is Lucilia cuprina. Briefly: Lucilia cuprina test. Conditions: application rate 100 ppm; L1 larvae in minced horsemeat; after 2 days. Type of data set: in vivo. How it is done:
Lucilia cuprina Test • Solvent: dimethyl sulphoxide To produce a suitable active compound preparation, 10 mg of active compound are mixed with 0.5 ml of dimethyl sulphoxide, and the concentrate is diluted with water to the desired concentration. About 20 L1 larvae of the Australian sheep blowfly (Lucilia cuprina) are transferred into a test vessel containing minced horsemeat and the active compound preparation of the desired concentration. After 2 days, the kill in % is determined. 100% means that all the larvae have been killed; 0% means that no larvae have been killed.

In data set [8] the test system is Spodoptera frugiperda. Briefly: Spodoptera frugiperda - spray test. Type of data set: in vivo. Conditions: application rate 500 g/ha; armyworm caterpillars on maize leaf discs; after 7 days.
The test system of data set [9] is Boophilus microplus. Nature of the data set: Boophilus microplus - injection test. Format: in vivo. Conditions: application rate 20 μg/animal; injected into engorged adult female cattle ticks; laying of fertile eggs after 7 days. The method, then:
Boophilus microplus—Injection Test
• Solvent: dimethyl sulphoxide
To produce a suitable active compound preparation, 10 mg of active compound are mixed with 0.5 ml of solvent and the concentrate is diluted with solvent to the desired concentration. 1 μl of the active compound solution is injected into the abdomen of 5 engorged adult female cattle ticks (Boophilus microplus). The animals are transferred into dishes and kept in a climate-controlled room.
Efficacy is assessed after 7 days by laying of fertile eggs. Eggs which are not visibly fertile are stored in a climate-controlled cabinet until the larvae hatch after about 42 days. An efficacy of 100% means that none of the ticks has laid any fertile eggs; 0% means that all the eggs are fertile.

Consider `CCS(=O)(=O)c1ccc(NC(=O)C(F)(F)F)nc1-c1nc2cc(C(F)(F)F)ccc2n1C` [Example I-11], for which the efficacy is recorded as 90% in [1], 100% in data set [3], 100% in data set [4] and 80% in data set [5]. For the same compound, in data set [2], the “log P (neutral)” value stood at 3.27. For the same compound, the “efficacy (kill)” value in data set [6] and in data set [7] was 100% throughout.
Regarding `CCS(=O)(=O)c1ccc(-n2cncn2)nc1-c1nc2cc(C(F)(F)F)cnc2n1C` [Example I-22], the efficacy in data set [1] was determined as 100%; in data set [8] it was 100%; in data set [3], 100%; in [4], 100%; in [9], 80%. Further, the “efficacy (kill)” value in [6] and in data set [7] was 100% each time.
